Laboratory results: patent US11312804B2, “Polymerizable compound, polymerizable composition, polymer, and photoresist composition” (JNC CORPORATION, priority 2018, dated 2022)

Experiment: Water solubility test: extraction from water into ethyl acetate, weight of residue
Assay type: physicochemical
Details: for weight of the residue: 0.500 g dissolved in 10 mL water at room temperature, 10 mL ethyl acetate added, stirred 10 min, organic layer dried and concentrated
Protocol: In 10 mL of water, 0.500 g of the compound represented by formula (14a-x) was dissolved at room temperature, and 10 mL of ethyl acetate was added thereto, and the resulting mixture was stirred for 10 min, and then the organic layer was dried over anhydrous sodium sulfate. The desiccant was filtered off, and then the filtrate was concentrated under reduced pressure. The weight of the residue was 0.101 g.
In 10 mL of water, 0.500 g of a compound represented by formula (15), namely, mevalonolactone was dissolved at room temperature, and 10 mL of ethyl acetate was added thereto, and the resulting mixture was stirred for 10 min, and then the organic layer was dried over anhydrous sodium sulfate. The desiccant was filtered off, and then the filtrate was concentrated under reduced pressure. Then weight of the residue was 0.080 g.

Row | weight of the residue [g] | water solubility compared with the compound used in Comparative Example 1 (conclusion from ethyl acetate extraction test) | SMILES
1 | 0.080 | – | CC1(O)CCOC(=O)C1 (stereo not drawn) [Compound 15, mevalonolactone, reference compound]
2 | 0.101 | lower water solubility | C[C@H]1C(=O)OCC[C@@]1(C)O [Compound 14a-x, α-methyl-mevalonolactone]
